Results: publication PMC10223470 (Molecules, 2023)
Like-named read-outs stand apart in the source and are kept apart here.

Tests used:
human 5-HT7 receptor = target: T1, human 5-HT7 receptor (Homo sapiens, UniProt P34969); assay: Competition radioligand binding at human 5-HT7 receptor ([3H]-SB269970); conditions: mean ± SEM of 2 independent experiments, read-out: hu5-HT7 % inh. at 10 µM
T1 construct: expressed in transfected cells; host or cells: HEK293
Method: (§1) Competition radioligand binding assays were performed on membranes isolated from cell lines stably expressing the cloned human receptors, which were either in-house or commercially available. […] Assays (250 μL assay final volume) were carried out in 96-well polypropylene plates in duplicate. In short, the suspension of appropriate membrane protein was incubated in an assay buffer with the addition of the corresponding radioligand, in the presence or absence of a tested compound or reference compound. […] After the incubation, the content of the test plates was transferred to 96 well plates with glass fiber filter GF/B or GF/C, previously pretreated with polyethyleneimine (PEI), and rapidly filtered with the use of vacuum, followed by rapid washing with cold (4 °C) wash buffer. After that, the filter plates were dried at 60 °C for 1 h. Then, 30 μL of liquid scintillation cocktail (UniverSol-ES, MP Biomedicals, Solon, OH, USA) was added to each well of the filter plates, and the radioactivity was measured in a MicroBeta^2 microplate scintillation counter (PerkinElmer, Madrid, Spain).
(§2) Competition binding curves were fitted to a one-site competition binding model (Fit Ki) with the use of Prism 7 software (GraphPad, San Diego, CA, USA). logKi (log of the equilibrium dissociation constant (Ki)) values were obtained after constraining the concentration of radioligand employed in the assay and its dissociation constant (KD) as determined in saturation radioligand binding assays.

human D2S receptor [1] = target: T2, human D2S receptor (Homo sapiens, UniProt P14416); assay: Competition radioligand binding at human D2 receptor ([3H]-Spiperone, CHO-K1 membranes); conditions: mean ± SEM of 2–3 independent experiments in duplicate; read-out: huD2 Ki
T2 construct: expressed in transfected cells; host or cells: CHO-K1
Method: Experiments were carried out in membranes isolated from a CHO-K1 cell line stably overexpressing the cloned human D2S receptor.
as §1, §2

human 5-HT1A receptor [2] = target: T3, human 5-HT1A receptor (Homo sapiens, UniProt P08908); assay: Competition radioligand binding at human 5-HT1A receptor ([3H]-8-OH-DPAT); conditions: mean ± SEM of 2 independent experiments, read-out: hu5-HT1A % inh. at 10 µM
T3 construct: expressed in transfected cells; host or cells: HEK293
T3 sequence (P08908 1-422): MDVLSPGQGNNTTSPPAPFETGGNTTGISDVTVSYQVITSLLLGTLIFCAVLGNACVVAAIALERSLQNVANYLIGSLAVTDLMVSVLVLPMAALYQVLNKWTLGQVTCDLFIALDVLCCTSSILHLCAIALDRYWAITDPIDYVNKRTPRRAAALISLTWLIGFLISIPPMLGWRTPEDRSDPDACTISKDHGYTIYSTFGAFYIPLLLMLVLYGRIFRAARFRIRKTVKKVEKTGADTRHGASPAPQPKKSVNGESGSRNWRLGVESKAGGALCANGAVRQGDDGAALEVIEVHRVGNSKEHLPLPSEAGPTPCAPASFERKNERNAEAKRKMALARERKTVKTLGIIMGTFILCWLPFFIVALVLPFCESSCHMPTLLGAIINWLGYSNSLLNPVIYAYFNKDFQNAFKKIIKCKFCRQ
Method: as §1, §2

[3] = target: T4, human dopamine D3 receptor (Homo sapiens, UniProt P35462); assay: Competition radioligand binding at human D3 receptor ([3H]-Spiperone); conditions: mean ± SEM of 2 independent experiments, read-out: huD3 % inh. at 10 µM
T4 construct: expressed in transfected cells; host or cells: CHO-K1
Method: as §1, §2

human 5-HT2A receptor [4] = target: T5, human 5-HT2A receptor (Homo sapiens, UniProt P28223); assay: Competition radioligand binding at human 5-HT2A receptor ([3H]-Ketanserin); conditions: mean ± SEM of 2 independent experiments, read-out: hu5-HT2A % inh. at 10 µM
T5 construct: expressed in transfected cells; host or cells: CHO-K1
Method: as §1, §2

[5] = target: T6, human dopamine D1 receptor (Homo sapiens, UniProt P21728); assay: Competition radioligand binding at human D1 receptor ([3H]-SCH-23390); conditions: mean ± SEM of 2 independent experiments, read-out: huD1 % inh. at 10 µM
T6 construct: expressed in transfected cells; host or cells: CHO-K1
Method: as §1, §2

human D2S receptor [6] = target: T2, human D2S receptor; assay: Functional assays of cAMP signalling at D2 receptors (CHO-K1 cells, HTRF); type: cell-based; conditions: for Kb: antagonism of 1 µM dopamine response; for efficacy at D2 receptor (mode of action): cAMP signaling, CHO-K1 cells
Method: The assessment of the activity of selected compounds at the D2 receptor was performed in cell-based functional assays of cAMP signaling, in the CHO-K1 cell line with stable expression of the cloned human D2S receptor, which was also employed for the radioligand binding assays. For D2 receptor antagonism, test compounds were dispensed into an empty 96-well plate (Isoplate-96 Black Frame White Well, PerkinElmer España SL, Madrid, Spain) with the use of the dispensing noncontact Echo 550 acoustic liquid handler (LABCYTE Inc., San Jose, CA, USA). Compounds were handled from frozen 10^−2 M stock solutions in 100% DMSO, from which serial 1000× solutions were prepared in 100% DMSO at the time of the assay, keeping vehicle concentration (0.1% DMSO) constant in the assay. Vials containing viable frozen cells were quickly thawed in a 37 °C water bath and cells were seeded into the assay plate in assay buffer (kit stimulation buffer containing 500 µM 3-isobutyl-1-methylxanthine (IBMX), which was directly added to the buffer as powder). […] After 10 min incubation at 37 °C, 10 µM forskolin was added to the corresponding wells, and incubation was continued for 5 min. After this time, cellular cAMP levels were quantified using the homogeneous time-resolved fluorescence (HTRF)-based cAMP Gs dynamic kit (Cisbio, Bioassays, Codolet, France) according to the manufacturer’s protocol. […] Basal cAMP levels were determined in control wells in the absence of compound, agonist, and forskolin.

[7] = target: T4, human dopamine D3 receptor; conditions: ref [10]; cited from earlier work
[8] = target: T6, human dopamine D1 receptor; conditions: ref [10]; cited from earlier work
human 5-HT2A receptor [9] = target: T5, human 5-HT2A receptor; conditions: ref [10]; cited from earlier work
human 5-HT1A receptor [10] = target: T3, human 5-HT1A receptor; conditions: ref [10]; cited from earlier work
human D2S receptor [11] = target: T2, human D2S receptor; conditions: radioligand binding; ref [10]; read-out: huD2 Ki; cited from earlier work
[12] = Leff-Dougall variant of Cheng-Prusoff, read-out: D2 Signalling (cAMP) Kb (Mean)

T4 sequence (P35462 whole entry): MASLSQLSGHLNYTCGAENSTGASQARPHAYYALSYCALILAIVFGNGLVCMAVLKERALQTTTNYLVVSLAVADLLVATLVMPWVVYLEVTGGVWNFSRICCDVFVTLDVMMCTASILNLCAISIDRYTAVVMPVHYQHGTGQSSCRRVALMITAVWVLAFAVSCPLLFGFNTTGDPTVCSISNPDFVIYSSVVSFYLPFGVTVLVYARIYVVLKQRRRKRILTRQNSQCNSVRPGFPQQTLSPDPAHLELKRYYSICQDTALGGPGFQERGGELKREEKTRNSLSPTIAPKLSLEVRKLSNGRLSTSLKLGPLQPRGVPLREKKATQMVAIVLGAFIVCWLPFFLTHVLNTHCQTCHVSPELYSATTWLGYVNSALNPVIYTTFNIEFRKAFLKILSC
T2 sequence (P14416 1-414 isoform P14416-2): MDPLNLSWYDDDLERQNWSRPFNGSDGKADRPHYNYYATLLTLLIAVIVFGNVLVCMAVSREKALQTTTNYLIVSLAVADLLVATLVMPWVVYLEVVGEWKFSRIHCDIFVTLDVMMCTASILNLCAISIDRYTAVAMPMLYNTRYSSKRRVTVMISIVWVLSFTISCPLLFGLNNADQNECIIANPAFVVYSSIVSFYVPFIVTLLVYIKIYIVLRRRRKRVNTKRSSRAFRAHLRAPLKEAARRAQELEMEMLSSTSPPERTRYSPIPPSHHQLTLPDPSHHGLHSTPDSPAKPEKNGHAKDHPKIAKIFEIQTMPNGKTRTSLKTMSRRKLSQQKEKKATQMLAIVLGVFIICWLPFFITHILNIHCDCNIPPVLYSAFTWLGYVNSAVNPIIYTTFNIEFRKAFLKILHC
T5 sequence (P28223 whole entry): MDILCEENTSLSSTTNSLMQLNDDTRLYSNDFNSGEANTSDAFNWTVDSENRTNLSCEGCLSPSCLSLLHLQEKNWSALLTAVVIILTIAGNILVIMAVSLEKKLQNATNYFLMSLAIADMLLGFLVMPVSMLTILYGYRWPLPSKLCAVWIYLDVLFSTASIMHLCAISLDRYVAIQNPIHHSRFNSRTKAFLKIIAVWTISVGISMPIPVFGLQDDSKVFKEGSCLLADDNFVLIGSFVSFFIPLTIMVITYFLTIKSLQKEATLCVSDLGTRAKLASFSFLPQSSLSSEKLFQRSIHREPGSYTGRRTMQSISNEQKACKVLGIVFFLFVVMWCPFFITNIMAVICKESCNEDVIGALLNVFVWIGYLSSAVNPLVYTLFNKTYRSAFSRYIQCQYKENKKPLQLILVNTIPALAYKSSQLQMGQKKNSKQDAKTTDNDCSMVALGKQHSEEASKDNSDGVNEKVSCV
T6 sequence (P21728 whole entry): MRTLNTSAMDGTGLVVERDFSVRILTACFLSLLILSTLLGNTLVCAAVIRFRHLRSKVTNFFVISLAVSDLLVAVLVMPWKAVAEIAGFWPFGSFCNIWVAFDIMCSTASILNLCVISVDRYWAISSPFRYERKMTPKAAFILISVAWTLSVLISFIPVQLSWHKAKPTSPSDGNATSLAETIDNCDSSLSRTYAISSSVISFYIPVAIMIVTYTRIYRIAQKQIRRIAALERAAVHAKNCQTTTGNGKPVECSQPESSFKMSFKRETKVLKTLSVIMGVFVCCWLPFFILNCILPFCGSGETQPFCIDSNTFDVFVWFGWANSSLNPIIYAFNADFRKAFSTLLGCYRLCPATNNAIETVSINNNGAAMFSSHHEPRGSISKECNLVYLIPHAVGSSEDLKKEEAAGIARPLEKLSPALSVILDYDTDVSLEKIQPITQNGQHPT
T1 sequence (P34969 whole entry): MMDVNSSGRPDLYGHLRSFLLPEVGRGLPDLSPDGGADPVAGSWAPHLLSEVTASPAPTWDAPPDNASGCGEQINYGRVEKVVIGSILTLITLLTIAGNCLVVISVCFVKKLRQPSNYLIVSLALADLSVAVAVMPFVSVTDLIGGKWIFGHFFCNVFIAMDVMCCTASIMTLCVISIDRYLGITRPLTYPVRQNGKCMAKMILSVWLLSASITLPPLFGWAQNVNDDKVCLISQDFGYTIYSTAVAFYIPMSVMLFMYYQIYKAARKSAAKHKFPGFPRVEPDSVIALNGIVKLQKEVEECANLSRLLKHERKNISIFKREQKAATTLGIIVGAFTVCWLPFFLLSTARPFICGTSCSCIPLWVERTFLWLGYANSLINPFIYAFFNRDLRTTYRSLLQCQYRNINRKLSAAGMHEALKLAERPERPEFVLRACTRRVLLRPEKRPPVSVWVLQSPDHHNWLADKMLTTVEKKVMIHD

Cc1ccc(NC(=O)CCN2C(=O)CSc3ccccc32)cc1 [Compound 14, 3-(3-Oxo-2,3-dihydro-4H-benzo[b][1,4]thiazin-4-yl)-N-(p-tolyl)propanamide]
inhibition at 10 µM (human 5-HT7 receptor): 0% | Ki (human D2S receptor [1]): 676 ± 134 nM | inhibition at 10 µM (human 5-HT1A receptor [2]): 27 ± 2% | inhibition at 10 µM [3]: 8 ± 4% | inhibition at 10 µM (human 5-HT2A receptor [4]): 15 ± 1% | inhibition at 10 µM [5]: 15 ± 2% | Kb (human D2S receptor [6]; forskolin-stimulated cAMP, three independent experiments, read-out: D2 Signalling (cAMP) pKb (Mean ± SEM) (converted)): 117 nM | Kb (human D2S receptor [6]; [12]): 119 nM | efficacy at D2 receptor (mode of action) (human D2S receptor [6]): antagonism

O=C(CCN1C(=O)CSc2ccccc21)Nc1ccc(C(F)(F)F)cc1 [Compound D2AAK2]
activity at dopamine D3 receptor [7]: not active | activity at dopamine D1 receptor [8]: not active | activity at serotonin 5-HT2A receptor (human 5-HT2A receptor [9]): not active | activity at serotonin 5-HT1A receptor (human 5-HT1A receptor [10]): not active | Ki (human D2S receptor [11]): 321 ± 25 nM

O=C(CCN1C(=O)CSc2ccccc21)Nc1ccc([N+](=O)[O-])cc1 [Compound 23, N-(4-Nitrophenyl)-3-(3-oxo-2,3-dihydro-4H-benzo[b][1,4]thiazin-4-yl)propanamide]
inhibition at 10 µM (human 5-HT7 receptor): 0% | Ki (human D2S receptor [1]): 724 ± 114 nM | inhibition at 10 µM (human 5-HT1A receptor [2]): 22 ± 3% | inhibition at 10 µM [3]: 4 ± 3% | inhibition at 10 µM (human 5-HT2A receptor [4]): 23 ± 3% | inhibition at 10 µM [5]: 12 ± 2% | Kb (human D2S receptor [6]; [12]): 113 nM | efficacy at D2 receptor (mode of action) (human D2S receptor [6]): antagonism
